The numbers were not newly measured in patent publication US20100183739A1, “Treatment and prevention of systemic bacterial infections in plants using antimicrobial metal compositions” (priority 2009, published 2010), which cites them from elsewhere.

Structures are written as SMILES.

The data set concerns bacteria. As to conditions: Appl Environ Microbiol. 2008; 74(7): 2171-2178.

For `[Ag+]` [silver ion], the “silver ion concentration for inhibition of bacterial growth” value is recorded as “below 5 ppm”.
